These are literature values, as cited in patent US20140302138A1, “EXTENDED RELEASE PHARMACEUTICAL COMPOSITIONS CONTAINING CARBAMAZEPINE” (priority 2011, published 2014).

For `NC(=O)N1c2ccccc2C=Cc2ccccc21` [Carbamazepine, 5H-dibenzo[b,f]azepine-5-carboxamide], where the note is “acetone”, the solubility in acetone entry is recorded as “soluble”. Moreover, the solubility in alcohol result (alcohol) is listed as “soluble”. The solubility in water entry (water) is “practically insoluble”.
